Test results taken from patent publication US12528846B2, “BH4 stabilized peptides and uses thereof” (Dana-Farber Cancer Institute, Inc., priority 2013, dated 2026).
Entries after “also recorded” stand apart in the source; their conditions may differ. Positions of bridges follow the written chain, without caps; N, C: chain ends. Non-standard residues stand in square brackets, D forms with d. Residues, ends and D or L forms follow the SMILES beside them. S5 = C=CCCC[C@](C)(N)C(=O)O; Nle = CCCC[C@H](N)C(=O)O

Assays:
[1] = test system: BAX-overexpressing HeLa cells; assay: Viability of transfected HeLa cells treated with staurosporine (CellTiter-Glo); type: cell-based; details: 325 nM staurosporine, 24-hour treatment
Experimental: Viability of the transfected cells subjected to 24-hour treatment with 325 nM staurosporine or no treatment with staurosporine was determined by addition of CellTiter-Glo reagent (Promega). The data shown in FIG. 20A are representative of three independent experiments.
This BCL-2-based rescue is negated upon co-expression of BAX with the L23A mutant form of BCL-2 (FIG. 20A).

Recombinant BAX [2] = target: T1, Recombinant BAX (Homo sapiens, UniProt Q07812); assay: BAX 6A7 immunoprecipitation (N-terminal conformational activation); type: biochemical; details: 1 μM BAX, liposomes, 1 μM BIM SAHB, peptide 0-2.0 μM, 30 min
T1 construct: made in house
T1 sequence (Q07812 whole entry): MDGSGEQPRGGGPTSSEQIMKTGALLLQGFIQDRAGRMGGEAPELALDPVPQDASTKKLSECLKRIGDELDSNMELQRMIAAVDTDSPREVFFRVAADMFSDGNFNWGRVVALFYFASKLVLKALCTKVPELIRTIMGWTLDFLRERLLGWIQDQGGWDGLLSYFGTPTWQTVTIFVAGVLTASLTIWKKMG
Experimental: An additional experiment was performed to determine whether BCL-2 BH4 SAHB binding would be capable of preventing the N-terminal unfolding characteristic of activated BAX. In this experiment, recombinant BAX was incubated with liposomes and a molar equivalent of BIM SAHB in the presence of increasing amounts of BCL-2 BH4 SAHBA or BCL-2 BH4 SAHBA L23A. After a 30 min pre-incubation period to allow for activation to proceed, the liposomal mixtures were subjected to immunoprecipitation with the BAX 6A7 antibody (Santa Cruz), which specifically recognizes the N-terminal epitope on BAX (residues 12-24) that is exposed during activation (Hsu et al., 1997). Immunoprecipitated protein was resolved by electrophoresis and immunoblotted with an antibody specific for BAX. […] Importantly, the L23A mutant version of the BH4 peptide, which was shown in the liposomal release assay to disrupt its inhibitory activity, had no effect on BAX 6A7 reactivity. The BAX 6A7 immunoprecipitation was carried out as follows. Recombinant BAX (1 μM) was mixed with liposomes and 1 μM BIM SAHB in the presence of increasing doses of BCL-2 BH4 SAHBA or BCL-2 BH4 SAHBA L23A (0 μM, 0.25 μM, 0.5 μM, 1.0 μM, and 2.0 μM). Following a 30 min incubation at room temperature, the mixture was immunoprecipitated with a-BAX 6A7 (Santa Cruz) and resolved by electrophoresis. […]

Recombinant BAX [3] = target: T1, Recombinant BAX; assay: Liposomal ANTS/DPX release, heat-induced BAX activation; type: biochemical; details: 500 nM BAX, liposomes, 37° C.
[4] = Hydrogen/deuterium mass spectrometry (HXMS) of BH4 SAHB peptide alone (structural stability); type: physicochemical; details: deuterium labeling 2 seconds to 1 hour
Experimental: (§1) The structural stability of the BCL-2 BH4 staple-scan panel of SAHBs was determined by hydrogen/deuterium mass spectrometry (HXMS). In these experiments, the BH4 SAHBs were labeled with deuterium for 2 seconds, 5 seconds, 10 seconds, 1 minute, 10 minutes, and 1 hour, followed by quenching with cold phosphate buffer (pH 2.5), and then immediately subjected to desalting and injection on a LCT Premier Mass Spectrometer (Waters Corporation). The relative uptake of deuterium was determined for each BH4 SAHB by dividing the mass of the corresponding undeuterated control. Labeling was performed with the BH4 SAHB peptide alone and following a 15-minute pre-equilibration with recombinant BAX protein (purified as previously described in Walensky et al. (Mol. Cell 24:199-210, 2006) and Gavathiotis et al. (Nature 455:1076-1081, 2008)) at a 1:2 BAX protein to BH4 SAHB peptide molar ratio.

Recombinant BAX [5] = target: T1, Recombinant BAX; assay: HXMS of recombinant BAX with or without BCL-2 BH4 SAHBA; type: binding; details: two molar excess of peptide, 10 seconds to 2 hours
Experimental: In additional studies, recombinant BAX protein was labeled with deuterium in the presence or absence of a two molar access of BCL-2 BH4 SAHBA for 10 seconds, 1 minute, 10 minutes, and 2 hours. Following the corresponding incubation period in D20 buffer, each sample was quenched with ice-cold phosphate buffer (pH 2.5) and injected on a custom Waters NanoACQUITY UPLC HDX Manager for analysis as described in Wales et al. (Anal. Chem. 80:6815-6820, 2008). Mass spectra were obtained with a Synapt G2 mass spectrometer (Waters Corporation) and analyzed with the DynamX software package (Waters Corporation). The data shown in FIG. 15A are the average of two duplicate experiments, where the relative difference (Da) shown for each peptide is equivalent to the relative deuterium uptake of the corresponding peptide in the BAX alone control minus the relative deuterium uptake of the peptide in the BCL-2 BH4 SAHBA-bound BAX sample. A significant relative difference is established as 0.4 Da. […] A significant relative difference in uptake is observed in the region of BAX al and the loop between α1 and α2, indicative of structural stabilization of this region of BAX protein as a result of BCL-2 BH4 SAHBA binding.

Recombinant BAX [6] = target: T1, Recombinant BAX; assay: HXMS of recombinant BAX with liposomes, BIM SAHB with or without BCL-2 BH4 SAHBA; type: biochemical; details: molar equivalent of BIM SAHB plus two molar excess of peptide
Experimental: Recombinant BAX protein was pre-equilibrated for 15 min with liposomes in the presence or absence of a molar equivalent of BIM SAHB (FIG. 15B) or a molar equivalent of BIM SAHB and a two molar excess of BCL-2 BH4 SAHBA (FIG. 15C), and then labeled with deuterium for 10 seconds, 1 minute, 10 minutes, and 2 hours. Following the corresponding incubation period in D20 buffer, each sample was quenched with ice-cold guanidine chloride buffer (pH 2.6) and then subjected to proteolysis on ice for 5 minutes. The samples were next injected on a custom Waters NanoACQUITY UPLC HDX Manager for analysis as described above. Mass spectra were obtained with a Synapt G2 mass spectrometer (Waters Corporation) and analyzed with the DynamX software package (Waters Corporation). The data shown in FIG. 15B are the duplicate of two experiments, where the relative difference (Da) shown for each BAX peptide fragment is equivalent to the relative deuterium uptake of the peptide in the BIM SAHB-activated BAX sample minus the relative deuterium uptake of the corresponding peptide in the BAX alone control. […] Mass spectra were obtained with a Synapt G2 mass spectrometer (Waters Corporation) and analyzed with the DynamX software package (Waters Corporation). […]

Recombinant BAX [7] = target: T1, Recombinant BAX; assay: HXMS of BH4 SAHBs after pre-equilibration with recombinant BAX protein; type: binding; details: 15-minute pre-equilibration, 1:2 BAX protein to BH4 SAHB molar ratio
Experimental: as §1

Recombinant BAX [8] = target: T1, Recombinant BAX; assay: Liposomal ANTS/DPX release, BIM SAHBA-triggered BAX activation; type: biochemical; details: 1.5 μM BIM SAHBA, 0.75 μM BAX, variety of peptide concentrations
Experimental: In these experiments, the BCL-2 BH4 SAHBA and unmodified BCL-2 BH4 peptide were incubated with 1.5 μM BIM SAHBA (Gavathiotis et al., Nature 455:1076-1081, 2008), 0.75 μM recombinant BAX protein, and 5 μL liposomes loaded with the ANTS and DPX (described above) at a variety of different concentrations.
A complete panel of BCL-2 BH4 SAHBA alanine and glutamine point mutants (0.75 μM) were screened for inhibition of BIM SAHBA (0.75 μM)-triggered BAX activation (0.75 μM) using the liposome release assay described above. The data were normalized to a 100% percent positive control level of liposome release achieved using BIM SAHBA and BAX alone, after correction for any intrinsic fluorescence detected for each FITC-labeled BCL-2 BH4 SAHB (0%). […] The alanine scanning data are also useful for designing the placement of staples in the BCL-2 BH4 peptides.

endogenous BAX = target: T2, endogenous BAX (Homo sapiens, UniProt Q07812); assay: Streptavidin pull-down of biotinylated SAHB from HeLa cell lysates; type: binding; details: 20 μM biotinylated peptide, 16 hrs at 4° C.
T2 construct: endogenous in cells; host or cells: HeLa
T2 sequence (Q07812 whole entry): as above
Experimental: HeLa cell lysates (0.5 mg) were incubated with vehicle (DMSO), biotinylated BCL-2 BH4 SAHBA (20 μM), or BCL-2 BH4 SAHBA L23A (20 μM) for 16 hrs at 4° C. prior to addition of high-capacity streptavidin agarose resin (Thermo Scientific). After three successive washes, associated protein was eluted from the resin into LDS sample buffer and analyzed by Western blot with the anti-BAX N20 antibody (Santa Cruz). […] The immunoblot in FIG. 19B is representative of three independent experiments.

Structure (SMILES) | apoptosis of transfected HeLa cells [1] | BAX 6A7 reactivity (BIM SAHB-triggered BAX activation) (Recombinant BAX [2]) | heat-induced activation of BAX and BAX-mediated poration (Recombinant BAX [3]) | relative deuterium uptake of BH4 SAHB peptide alone [4] | deuterium uptake by BAX protein upon peptide engagement (Recombinant BAX [5]) | differences in relative uptake of BIM SAHB-treated BAX compared to BAX alone (Recombinant BAX [6]) | deuterium uptake of BH4 SAHB upon addition of recombinant BAX protein (Recombinant BAX [7]) | BAX activation in response to BIM SAHBA treatment (liposomal poration) (Recombinant BAX [8]) | pull-down of BAX from HeLa cell lysates (endogenous BAX) | pull-down of BAX from HeLa cell lysates (endogenous BAX; listed as biotinylated-BCL-2 BH4 SAHBA)
CN[C@@H]1C[C@H]2O[C@@](C)([C@@H]1OC)n1c3ccccc3c3c4c(c5c6ccccc6n2c5c31)C(=O)NC4 [staurosporine] | induces apoptosis |  |  |  |  |  |  |  |  | 
CCCC[C@H](NC(=O)[C@@H](NC(=O)[C@@H](NC(=O)[C@H](CCC(=O)O)NC(C)=O)[C@@H](C)CC)C(C)C)C(=O)N[C@@H](CCCCN)C(=O)N[C@@H](Cc1ccc(O)cc1)C(=O)N[C@H](C(=O)N[C@@H](Cc1c[nH]cn1)C(=O)N[C@@H](Cc1ccc(O)cc1)C(=O)N[C@@H](CCCCN)C(=O)N[C@@H](CC(C)C)C(=O)N[C@@H](CO)C(=O)N[C@@]1(C)CCCC=CCCC[C@@](C)(C(=O)N[C@@H](Cc2c[nH]c3ccccc23)C(=O)N[C@@H](CC(=O)O)C(=O)N[C@@H](C)C(N)=O)NC(=O)[C@H](Cc2ccc(O)cc2)NC(=O)CNC(=O)[C@H](CCCNC(=N)N)NC1=O)[C@@H](C)CC [BCL-2 BH4 SAHBA] (Ac-EIV[Nle]KYIHYKLS[S5]RGY[S5]WDA-NH2; staple 13-17; N-terminus and C-terminus assumed) |  | dose-responsively reduces; also recorded: dose-responsively inhibited | dose-responsively decreased | markedly reduced uptake | decrease in deuterium uptake | complete suppression; also recorded: can block the changes in BAX conformation | reduced uptake | dose-responsively decreased; also recorded: dose-responsively blocks | specifically interacted | specifically immunoprecipitated
